Test results published in PMC2263054, “Functional evolution of the vitamin D and pregnane X receptors” (BMC Evolutionary Biology, 2007).
Structures can show the parent of a compound that is named as a salt. Where two headings read alike, the source gives them in different places.

Key:
Assay type in all cases: cell-based
[1] = target: T1, Sea lamprey VDR (Petromyzon marinus, UniProt Q7ZZY9)
T1 sequence (Q7ZZY9 92-406): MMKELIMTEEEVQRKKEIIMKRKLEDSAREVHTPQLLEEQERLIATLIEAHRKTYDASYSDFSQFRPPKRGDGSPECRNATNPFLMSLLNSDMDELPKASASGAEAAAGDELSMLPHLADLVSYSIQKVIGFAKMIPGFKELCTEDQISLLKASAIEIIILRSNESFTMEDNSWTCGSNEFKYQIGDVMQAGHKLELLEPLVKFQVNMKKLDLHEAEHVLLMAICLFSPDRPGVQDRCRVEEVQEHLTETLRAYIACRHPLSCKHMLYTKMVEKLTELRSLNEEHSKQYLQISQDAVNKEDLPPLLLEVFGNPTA

[2] = target: T2, Zebrafish VDR (Danio rerio, UniProt Q9PTN2); experiment: luciferase reporter transactivation assay in HepG2-NTCP cells, GAL4/zfVDR LBD chimera with tk-UAS-Luc; conditions: screening for activators, at least three concentrations of each drug
T2 sequence (Q9PTN2 121-453): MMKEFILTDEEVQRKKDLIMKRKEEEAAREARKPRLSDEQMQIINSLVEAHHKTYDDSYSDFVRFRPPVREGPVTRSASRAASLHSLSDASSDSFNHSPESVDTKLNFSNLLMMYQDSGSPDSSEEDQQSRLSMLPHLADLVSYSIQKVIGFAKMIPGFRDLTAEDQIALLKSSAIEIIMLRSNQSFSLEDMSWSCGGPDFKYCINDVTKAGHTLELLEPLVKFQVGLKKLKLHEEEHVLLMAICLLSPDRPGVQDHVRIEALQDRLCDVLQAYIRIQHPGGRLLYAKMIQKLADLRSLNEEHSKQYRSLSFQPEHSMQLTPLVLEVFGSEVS

[3] = target: T3, Xenopus laevis VDR (Xenopus laevis, UniProt O13124); experiment: luciferase reporter transactivation assay in HepG2-NTCP cells, GAL4/xlVDR LBD chimera with tk-UAS-Luc; conditions: screening for activators, at least three concentrations of each drug
T3 sequence (O13124 90-422): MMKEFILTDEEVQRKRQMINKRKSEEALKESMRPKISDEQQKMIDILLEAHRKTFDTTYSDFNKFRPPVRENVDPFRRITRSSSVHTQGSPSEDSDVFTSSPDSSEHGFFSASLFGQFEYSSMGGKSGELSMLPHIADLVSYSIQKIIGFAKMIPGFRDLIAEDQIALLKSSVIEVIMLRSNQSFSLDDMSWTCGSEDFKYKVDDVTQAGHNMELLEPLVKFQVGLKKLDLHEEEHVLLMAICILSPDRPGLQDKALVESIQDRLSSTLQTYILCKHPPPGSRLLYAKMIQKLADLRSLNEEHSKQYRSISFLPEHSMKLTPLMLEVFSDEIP

[4] = screening for activators, at least three concentrations of each drug

CC[C@H](CC[C@@H](C)[C@H]1CC[C@H]2[C@@H]3CC=C4C[C@@H](O)CC[C@]4(C)[C@H]3CC[C@]12C)C(C)C [Beta-sitosterol]
No effect: Effect on sea lamprey VDR [1, 4] | Effect on zebrafish VDR [2] | Effect on Xenopus laevis VDR [3]

Cc1cc(O)c(C)c2c1O[C@](C)(CCC[C@H](C)CCC[C@H](C)CCCC(C)C)CC2 [Beta-tocopherol]
No effect: Effect on sea lamprey VDR [1, 4] | Effect on zebrafish VDR [2] | Effect on Xenopus laevis VDR [3]

CC(C)(Oc1ccc(CCNC(=O)c2ccc(Cl)cc2)cc1)C(=O)O [Bezafibrate]
No effect: Effect on sea lamprey VDR [1, 4] | Effect on zebrafish VDR [2] | Effect on Xenopus laevis VDR [3]

Clc1ccc(-c2nc3sccn3c2/C=N/OCc2ccc(Cl)c(Cl)c2)cc1 [CITCO]
No effect: Effect on sea lamprey VDR [1, 4] | Effect on zebrafish VDR [2] | Effect on Xenopus laevis VDR [3]

CC(C)[C@H](C)CC[C@@H](C)[C@H]1CC[C@H]2[C@@H]3CC=C4C[C@@H](O)CC[C@]4(C)[C@H]3CC[C@]12C [Campesterol]
No effect: Effect on sea lamprey VDR [1, 4] | Effect on zebrafish VDR [2] | Effect on Xenopus laevis VDR [3]

C[C@H](CCC(=O)O)[C@H]1CC[C@H]2[C@@H]3[C@H](O)C[C@@H]4C[C@H](O)CC[C@]4(C)[C@H]3CC[C@]12C [Chenodeoxycholic acid]
No effect: Effect on sea lamprey VDR [1] | Effect on zebrafish VDR [2] | Effect on Xenopus laevis VDR [3]

CC(C)CCC[C@@H](C)[C@H]1CC[C@H]2[C@@H]3CC=C4C[C@@H](OS(=O)(=O)O)CC[C@]4(C)[C@H]3CC[C@]12C [Cholesteryl sulfate (5-cholesten-3b-ol), Cholesteryl sulfate]
No effect: Effect on sea lamprey VDR [1, 4] | Effect on zebrafish VDR [2] | Effect on Xenopus laevis VDR [3]

CC1(COc2ccc(CC3SC(=O)NC3=O)cc2)CCCCC1 (stereo not drawn) [Ciglitazone]
No effect: Effect on sea lamprey VDR [1, 4] | Effect on zebrafish VDR [2] | Effect on Xenopus laevis VDR [3]

CC(C)(Oc1ccc(Cl)cc1)C(=O)O [Clofibric acid]
No effect: Effect on sea lamprey VDR [1, 4] | Effect on zebrafish VDR [2] | Effect on Xenopus laevis VDR [3]

Clc1ccccc1C(c1ccccc1)(c1ccccc1)n1ccnc1 [Clotrimazole]
No effect: Effect on sea lamprey VDR [1, 4] | Effect on zebrafish VDR [2] | Effect on Xenopus laevis VDR [3]

C[C@]12CC[C@H]3[C@@H](CCC4=CC(=O)CC[C@@]43C)[C@@H]1CC[C@@H]2C(=O)CO [Cortexone (4-Pregnen-21-ol-3,20-dione), 4-Pregnen-21-ol-3,20-dione]
No effect: Effect on sea lamprey VDR [1, 4] | Effect on zebrafish VDR [2] | Effect on Xenopus laevis VDR [3]

C[C@]12CCC(=O)C=C1CC[C@@H]1[C@@H]2[C@@H](O)C[C@@]2(C)[C@H]1CC[C@]2(O)C(=O)CO [Cortisol]
No effect: Effect on sea lamprey VDR [1, 4] | Effect on zebrafish VDR [2] | Effect on Xenopus laevis VDR [3]

C[C@]12CCC(=O)C=C1CC[C@@H]1[C@@H]2C(=O)C[C@@]2(C)[C@H]1CC[C@]2(O)C(=O)CO [Cortisone]
No effect: Effect on sea lamprey VDR [1] | Effect on zebrafish VDR [2] | Effect on Xenopus laevis VDR [3]

C[C@]12CC[C@@H](O)C[C@H]1CC[C@@H]1[C@@H]2[C@@H](O)C[C@@]2(C)[C@H]1CC[C@]2(O)[C@@H](O)CO [Cortol]
No effect: Effect on sea lamprey VDR [1, 4] | Effect on zebrafish VDR [2] | Effect on Xenopus laevis VDR [3]

C[C@]12CC[C@@H](O)C[C@H]1CC[C@@H]1[C@@H]2C(=O)C[C@@]2(C)[C@H]1CC[C@]2(O)[C@@H](O)CO [Cortolone]
No effect: Effect on sea lamprey VDR [1, 4] | Effect on zebrafish VDR [2] | Effect on Xenopus laevis VDR [3]

CC(C)=CCC[C@@H](C)[C@H]1CC[C@@]2(C)[C@@H]3CC[C@H]4C(C)(C)[C@@H](O)CC[C@@]45C[C@@]35CC[C@]12C [Cycloartenol]
No effect: Effect on sea lamprey VDR [1, 4] | Effect on zebrafish VDR [2] | Effect on Xenopus laevis VDR [3]

C[C@]12CC[C@H](OS(=O)(=O)O)CC1=CC[C@@H]1[C@@H]2CC[C@]2(C)C(=O)CC[C@@H]12 [DHEA sulfate]
No effect: Effect on sea lamprey VDR [1, 4] | Effect on zebrafish VDR [2] | Effect on Xenopus laevis VDR [3]

C[C@]12CC[C@H](O)CC1=CC[C@@H]1[C@@H]2CC[C@]2(C)C(=O)CC[C@@H]12 [DHEA]
No effect: Effect on sea lamprey VDR [1, 4] | Effect on zebrafish VDR [2] | Effect on Xenopus laevis VDR [3]

C[C@H](CCC(=O)O)[C@H]1CC[C@H]2[C@@H]3CC[C@@H]4C[C@H](O)CC[C@]4(C)[C@H]3C[C@H](O)[C@]12C [Deoxycholic acid]
No effect: Effect on sea lamprey VDR [1, 4] | Effect on zebrafish VDR [2] | Effect on Xenopus laevis VDR [3]

C[C@]12CCC(=O)C[C@@H]1CC[C@@H]1[C@@H]2CC[C@]2(C)[C@@H](O)CC[C@@H]12 [Dihydrotestosterone]
No effect: Effect on sea lamprey VDR [1, 4] | Effect on zebrafish VDR [2] | Effect on Xenopus laevis VDR [3]

CC/C=C\C/C=C\C/C=C\C/C=C\C/C=C\C/C=C\CCC(=O)O [Docosa-4Z,7Z,10Z,13Z,16Z,19Z-hexanoic acid]
No effect: Effect on sea lamprey VDR [1, 4] | Effect on zebrafish VDR [2] | Effect on Xenopus laevis VDR [3]

C[C@H]([C@H](O)CCC(C)(C)O)[C@H]1CC[C@@]2(O)C3=CC(=O)[C@@H]4C[C@@H](O)[C@@H](O)C[C@]4(C)[C@H]3CC[C@]12C [Ecdysone]
No effect: Effect on sea lamprey VDR [1, 4] | Effect on zebrafish VDR [2] | Effect on Xenopus laevis VDR [3]

C[C@]12CC[C@@H]3c4ccc(O)cc4CC[C@H]3[C@@H]1[C@@H](O)[C@@H](O)[C@@H]2O [Estetrol]
No effect: Effect on sea lamprey VDR [1, 4] | Effect on zebrafish VDR [2] | Effect on Xenopus laevis VDR [3]

C[C@]12CC[C@@H]3c4ccc(O[C@@H]5O[C@H](C(=O)O)[C@@H](O)[C@H](O)[C@H]5O)cc4CC[C@H]3[C@@H]1CC[C@@H]2O [Estradiol 3-glucuronide]
No effect: Effect on sea lamprey VDR [1, 4] | Effect on zebrafish VDR [2] | Effect on Xenopus laevis VDR [3]

C[C@]12CC[C@@H]3c4ccc(OS(=O)(=O)O)cc4CC[C@H]3[C@@H]1CC[C@@H]2O [Estradiol 3-sulfate]
No effect: Effect on sea lamprey VDR [1, 4] | Effect on zebrafish VDR [2] | Effect on Xenopus laevis VDR [3]

C[C@]12CC[C@@H]3c4ccc(O)cc4CC[C@H]3[C@@H]1C[C@@H](O)[C@@H]2O [Estriol]
No effect: Effect on sea lamprey VDR [1, 4] | Effect on zebrafish VDR [2] | Effect on Xenopus laevis VDR [3]

C[C@]12CC[C@@H]3c4ccc(OS(=O)(=O)O)cc4CC[C@H]3[C@@H]1CCC2=O [Estrone 3-sulfate]
No effect: Effect on sea lamprey VDR [1, 4] | Effect on zebrafish VDR [2] | Effect on Xenopus laevis VDR [3]

C#C[C@]1(O)CC[C@H]2[C@@H]3CCc4cc(O)ccc4[C@H]3CC[C@@]21C [Ethinyl estradiol]
No effect: Effect on sea lamprey VDR [1, 4] | Effect on zebrafish VDR [2] | Effect on Xenopus laevis VDR [3]

C[C@]12CC[C@@H](O)C[C@H]1CC[C@@H]1[C@@H]2CC[C@]2(C)C(=O)CC[C@@H]12 [Etiocholanolone]
No effect: Effect on sea lamprey VDR [1, 4] | Effect on zebrafish VDR [2] | Effect on Xenopus laevis VDR [3]
